How the values were obtained:
[1] = In vitro cytotoxic activity against Vero cells; type: cell-based; conditions: chlorocebus sabaeus, read-out: CCID50
HeLa = experiment: In vitro antiviral activity against HIV in HeLa CD4 cells; type: functional, cell-based; conditions: Homo sapiens
HepG2 = experiment: In vitro antiviral activity against HBV in Hep G2 cells; type: functional, cell-based; conditions: Homo sapiens

Row | SMILES | IC50 (HeLa) [µM] | IC50 (HepG2) [µM] | CC50 [1] [µM]
1 | Nc1ccn([C@@H]2CC[C@H](CO)O2)c(=O)n1 | > 50 | > 100 | > 500
2 | Nc1nc(=O)n([C@@H]2CC[C@H](CO)O2)cc1F | > 50 | > 100 | > 500
3 | Nc1ccn([C@H]2CC[C@@H](CO)O2)c(=O)n1 [ZALCITABINE] | 38 | > 100 | > 500

The next lines start with results.

Row | IC50 (HeLa) [µM] | IC50 (HepG2) [µM] | SMILES | CC50 [1] [µM]
4 | < 50 | > 50 | Nc1nc(=O)n([C@H]2C=C[C@@H](CO)S2)cc1F | > 500
5 | 0.8 | 0.8 | Nc1ccn([C@@H]2C=C[C@H](CO)S2)c(=O)n1 | > 500
6 | 0.4 | 3.5 | Nc1nc(=O)n([C@@H]2C=C[C@H](CO)S2)cc1F | > 500
7 | 23 | 15 | Nc1ccn([C@H]2C=C[C@@H](CO)S2)c(=O)n1 | > 500

Reference: ChEMBL document CHEMBL1150024, “Synthesis and antiviral evaluation of enantiomeric 2,3-dideoxy- and 2,3-didehydro-2,3-dideoxy-4-thionucleosides” (Bioorg Med Chem Lett, 1995)
